Experimental data from the supplement of paper PMC11061612.

Columns and labels:
Assay in all cases: combination Emax (second highest fraction inhibited in the dose matrix, 72 h); higher = more inhibition; extreme values may be limits of the assay
[1] = test system: NCI-H650 (Lung Adenocarcinoma)
Outline: (§1)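 After 24 hours at 37°C and 5% CO2 in 1536-well plates, cells in DMEM/F12 or RPMI plus 10% FBS received two-drug dose matrices for 72 hours. Viability came from CellTiter-Glo 2.0 luminescence and was scaled as inhibition, anchored at 0 by vehicle wells and at 1 by blank wells. Combination Emax is taken as the second-highest inhibition in the matrix, and Bliss excess as the observed combination effect less EA + EB − EA·EB, with EA and EB the single-agent effects.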

[2] = test system: MOG-G-UVW (Low Grade Glioma)
Outline: as §1

SK-N-AS (Neuroblastoma) = test system: SK-N-AS (Neuroblastoma)
Outline: as §1

[3] = test system: HCC2998 (Colorectal Carcinoma)
Outline: as §1

[4] = test system: HCC1500 (Breast Carcinoma)
Outline: as §1

[5] = test system: NCI-H1092 (Small Cell Lung Carcinoma)
Outline: as §1

[6] = test system: MOLT-4 (T-Lymphoblastic Leukemia)
Outline: as §1

[7] = test system: OACM5-1 (Esophageal Adenocarcinoma)
Outline: as §1

[8] = test system: ALL-SIL (T-Lymphoblastic Leukemia)
Outline: as §1

[9] = test system: NCI-H1838 (Lung Adenocarcinoma)
Outline: as §1

[10] = test system: EJM (Plasma Cell Myeloma)
Outline: as §1

[11] = test system: HCC1937 (Breast Carcinoma)
Outline: as §1

[12] = test system: NCI-H2122 (Lung Adenocarcinoma)
Outline: as §1

[13] = test system: SKN (Other Solid Carcinomas)
Outline: as §1

[14] = test system: KGN (Other Solid Carcinomas)
Outline: as §1

[15] = test system: KOPN-8 (B-Lymphoblastic Leukemia)
Outline: as §1

[16] = test system: ME-180 (Cervical Carcinoma)
Outline: as §1

[17] = test system: CADO-ES1 (Ewing's Sarcoma)
Outline: as §1

[18] = test system: MDA-MB-453 (Breast Carcinoma)
Outline: as §1

[19] = test system: EFO-21 (Ovarian Carcinoma)
Outline: as §1

| Structure (SMILES) | combination Emax [1] | combination Emax [2] | combination Emax (SK-N-AS (Neuroblastoma)) | combination Emax [3] | combination Emax [4] | combination Emax [5] | combination Emax [6] | combination Emax [7] | combination Emax [8] | combination Emax [9] | combination Emax [10] | combination Emax [11] | combination Emax [12] | combination Emax [13] | combination Emax [14] | combination Emax [15] | combination Emax [16] | combination Emax [17] | combination Emax [18] | combination Emax [19] |
| --- | --- | --- | --- | --- | --- | --- | --- | --- | --- | --- | --- | --- | --- | --- | --- | --- | --- | --- | --- | --- |
| COc1nnc2ccc(N3CCC(c4ccc(OCCN5CCN(C)C(=O)[C@H]5C)cc4)CC3)nn12 [AZD5153] + CC1(C)CCC(CN2CCN(c3ccc(C(=O)NS(=O)(=O)c4ccc(NCC5CCOCC5)c([N+](=O)[O-])c4)c(Oc4cnc5[nH]ccc5c4)c3)CC2)=C(c2ccc(Cl)cc2)C1 [Venetoclax] (first compound max 1 µM, 7x7, partner max 1 µM) | 0.381 | 0.715 | 0.415 | 0.685 | 0.755 | 0.478 | 0.425 | 0.607 | 0.956 | 0.35 | 0.543 | 0.344 | 0.78 | 0.594 | 0.729 | 1 | 0.49 | 0.665 | 0.649 | 0.425 |
| CC(=O)c1c(C)c2cnc(Nc3ccc(N4CCNCC4)cn3)nc2n(C2CCCC2)c1=O [Palbociclib] + CC1(C)CCC(CN2CCN(c3ccc(C(=O)NS(=O)(=O)c4ccc(NCC5CCOCC5)c([N+](=O)[O-])c4)c(Oc4cnc5[nH]ccc5c4)c3)CC2)=C(c2ccc(Cl)cc2)C1 [Venetoclax] (first compound max 10 µM, 7x7, partner max 1 µM) | 0.172 | 0.497 | 0.125 | 0.416 | 0.545 | 0.222 | 0.629 | 0.479 | 0.76 | 0.279 | 0.159 | 0.0808 | 0.688 | 0.342 | 0.507 | 0.958 | 0.0846 | 0.678 | 0.275 | 0.105 |
| CC1(C)CCC(CN2CCN(c3ccc(C(=O)NS(=O)(=O)c4ccc(NCC5CCOCC5)c([N+](=O)[O-])c4)c(Oc4cnc5[nH]ccc5c4)c3)CC2)=C(c2ccc(Cl)cc2)C1 [Venetoclax] + C1CN(CCC1(C(=O)N[C@@H](CCO)C2=CC=C(C=C2)Cl)N)C3=NC=NC4=C3C=CN4 [Capivasertib] (first compound max 1 µM, 7x7, partner max 3 µM) | 0.143 | 0.455 | 0.203 | 0.298 | 0.704 | 0.354 | 0.718 | 0.592 | 0.687 | 0.283 | 0.255 | 0.373 | 0.498 | 0.42 | 0.389 | 0.824 | 0.517 | 0.667 | 0.463 | 0.222 |
| NC1(C(=O)N[C@@H](CCO)c2ccc(Cl)cc2)CCN(c2ncnc3[nH]ccc23)CC1 [Capivasertib] + COc1nnc2ccc(N3CCC(c4ccc(OCCN5CCN(C)C(=O)[C@H]5C)cc4)CC3)nn12 [AZD5153] (first compound max 10 µM, 7x7, partner max 1 µM) | 0.579 | 0.835 | 0.445 | 0.872 | 0.264 | 0.364 | 1 | 0.805 | 0.841 | 0.264 | 0.658 | 0.44 | 0.817 | 0.725 | 0.709 | 0.992 | 0.693 | 0.356 | 0.93 | 0.321 |
| CS(=O)(=O)CCNCc1ccc(-c2ccc3ncnc(Nc4ccc(OCc5cccc(F)c5)c(Cl)c4)c3c2)o1 [Lapatinib] + NC1(c2ccc(-c3nc4ccn5c(=O)[nH]nc5c4cc3-c3ccccc3)cc2)CCC1 [MK-2206] (first compound max 10 µM, 7x7, partner max 10 µM) | 0.31 | 0.648 | 0.16 | – | 0.901 | 0.791 | 0.938 | – | – | 0.348 | – | 0.841 | – | 0.658 | 0.85 | 0.936 | 0.758 | – | 0.801 | 0.321 |
| C=CCn1c(=O)c2cnc(Nc3ccc(N4CCN(C)CC4)cc3)nc2n1-c1cccc(C(C)(C)O)n1 [AZD1775] + C1CN(CCC1(C(=O)N[C@@H](CCO)C2=CC=C(C=C2)Cl)N)C3=NC=NC4=C3C=CN4 [Capivasertib] (first compound max 3 µM, partner max 3 µM) | 0.786 | 0.891 | 0.766 | 0.831 | 0.413 | 0.533 | 0.989 | 0.74 | 0.936 | 0.501 | 0.923 | 0.873 | 0.931 | 0.576 | 0.734 | 0.968 | 0.898 | 0.621 | 0.859 | 0.515 |
| NC1(C(=O)N[C@@H](CCO)c2ccc(Cl)cc2)CCN(c2ncnc3[nH]ccc23)CC1 [Capivasertib] + CC(=O)c1c(C)c2cnc(Nc3ccc(N4CCNCC4)cn3)nc2n(C2CCCC2)c1=O [Palbociclib] (first compound max 10 µM, 7x7, partner max 10 µM) | 0.262 | 0.727 | 0.351 | 0.591 | 0.239 | 0.177 | 0.736 | 0.721 | 0.46 | 0.432 | 0.391 | 0.477 | 0.793 | 0.639 | 0.724 | 0.809 | 0.629 | 0.274 | 0.589 | 0.101 |
| CS(=O)(=O)CCNCc1ccc(-c2ccc3ncnc(Nc4ccc(OCc5cccc(F)c5)c(Cl)c4)c3c2)o1 [Lapatinib] + C[C@@H](Oc1cc(-c2cnn(C3CCNCC3)c2)cnc1N)c1c(Cl)ccc(F)c1Cl [Crizotinib] (first compound max 10 µM, 7x7, partner max 10 µM) | 0.615 | 0.842 | 0.359 | 0.938 | 0.854 | 0.604 | 0.966 | 0.889 | 1 | 0.436 | 0.937 | 0.674 | 0.962 | 0.743 | 0.944 | 0.978 | 0.81 | 0.774 | 0.531 | 0.371 |
| CCc1c2c(nc3ccc(O)cc13)-c1cc3c(c(=O)n1C2)COC(=O)[C@]3(O)CC [SN-38] + O=C(c1cc(Cc2n[nH]c(=O)c3ccccc23)ccc1F)N1CCN(C(=O)C2CC2)CC1 [Olaparib] (first compound max 0.3 µM, 7x7, partner max 10 µM) | – | 0.825 | 0.76 | – | 0.873 | 0.54 | 1 | 0.796 | 1 | – | 0.944 | – | – | 0.596 | 0.918 | 0.965 | 0.914 | 0.987 | 0.746 | 0.586 |
| CC1(C)CCC(CN2CCN(c3ccc(C(=O)NS(=O)(=O)c4ccc(NCC5CCOCC5)c([N+](=O)[O-])c4)c(Oc4cnc5[nH]ccc5c4)c3)CC2)=C(c2ccc(Cl)cc2)C1 [Venetoclax] + Cn1cnc2c(F)c(Nc3ccc(Br)cc3Cl)c(C(=O)NOCCO)cc21 [Selumetinib] (first compound max 1 µM, 7x7, partner max 3 µM) | 0.239 | 0.413 | 0.647 | 0.683 | 0.612 | 0.253 | 0.451 | 0.336 | 0.679 | 0.165 | 0.0906 | 0.264 | 0.679 | 0.136 | 0.246 | 0.971 | 0.256 | 0.632 | 0.15 | 0.264 |
| CN(CCO)CC[C@H](CSc1ccccc1)Nc1ccc(S(=O)(=O)NC(=O)c2ccc(N3CCC([C@@H](O)c4ccccc4-c4ccc(Cl)cc4)CC3)cc2)cc1S(=O)(=O)C(F)(F)F [AZD4320] + C=CCn1c(=O)c2cnc(Nc3ccc(N4CCN(C)CC4)cc3)nc2n1-c1cccc(C(C)(C)O)n1 [AZD1775] (first compound max 1 µM, partner max 1 µM) | 0.564 | – | 0.976 | 0.899 | 0.995 | 0.809 | 1 | 0.635 | 1 | 0.541 | 0.977 | 0.791 | 0.953 | 0.586 | 0.784 | 1 | 0.581 | 0.566 | 0.285 | 0.53 |
| C=CCn1c(=O)c2cnc(Nc3ccc(N4CCN(C)CC4)cc3)nc2n1-c1cccc(C(C)(C)O)n1 [AZD1775] + C[C@@H]1COCCN1C2=NC(=NC(=C2)C3(CC3)[S@](=N)(=O)C)C4=C5C=CNC5=NC=C4 [AZD6738] (first compound max 1 µM, partner max 10 µM) | 0.329 | 0.922 | – | 0.938 | 0.382 | 0.397 | 1 | 0.778 | 0.992 | 0.733 | 0.904 | 0.68 | 0.961 | 0.506 | 0.922 | 0.965 | 0.802 | 0.901 | 0.891 | 0.543 |
